{
  "source": "PubChem BioAssay (NCI)",
  "assay_in_all_cases": "NCI tumour cell line growth inhibition, 48 h",
  "key": {"[1]": {"system": "MOLT-4 leukemia"}, "[2]": {"system": "HOP-92 NSCLC"}, "[3]": {"system": "EKVX NSCLC"}, "[4]": {"system": "MDA-MB-435"}, "[5]": {"system": "MALME-3M melanoma"}, "[6]": {"system": "LOX IMVI melanoma"}, "[7]": {"system": "CCRF-CEM leukemia"}, "[8]": {"system": "SR leukemia"}, "[9]": {"system": "KM12 colon"}, "[10]": {"system": "OVCAR-4 ovarian"}, "[11]": {"system": "NCI-H460 lung"}, "[12]": {"system": "HS 578T breast"}, "[13]": {"system": "NCI-H23 lung"}, "[14]": {"system": "MCF7 breast"}, "[15]": {"system": "A549 NSCLC"}, "[16]": {"system": "A498 renal"}, "[17]": {"system": "DU-145 prostate"}, "[18]": {"system": "SK-OV-3 ovarian"}, "[19]": {"system": "MDA-MB-231 breast"}, "[20]": {"system": "HCC-2998 colon"}, "[21]": {"system": "TK-10 renal"}, "[22]": {"system": "OVCAR-3 ovarian"}, "[23]": {"system": "MDA-N"}, "[24]": {"system": "HCT-116 colon"}, "[25]": {"system": "SK-MEL-2 melanoma"}, "[26]": {"system": "UACC-62 melanoma"}, "[27]": {"system": "RPMI-8226 leukemia"}, "[28]": {"system": "K-562 leukemia"}, "[29]": {"system": "COLO 205 colon"}, "[30]": {"system": "HT29 colon"}, "[31]": {"system": "SF-539 CNS"}, "[32]": {"system": "NCI-H522 lung"}, "[33]": {"system": "SF-295 CNS"}, "[34]": {"system": "ACHN renal"}, "[35]": {"system": "UO-31 renal"}, "[36]": {"system": "SW-620 colon"}, "[37]": {"system": "SF-268 CNS"}, "[38]": {"system": "SK-MEL-28 melanoma"}, "[39]": {"system": "T-47D breast"}, "[40]": {"system": "UACC-257 melanoma"}, "[41]": {"system": "SK-MEL-5 melanoma"}, "[42]": {"system": "HOP-62 NSCLC"}, "[43]": {"system": "HL-60(TB) leukemia"}, "[44]": {"system": "BT-549 breast"}, "[45]": {"system": "NCI-H226 lung"}, "[46]": {"system": "OVCAR-5 ovarian"}, "[47]": {"system": "RXF 393 renal"}, "[48]": {"system": "PC-3 prostate"}, "[49]": {"system": "U251 CNS"}, "[50]": {"system": "M14 melanoma"}, "[51]": {"system": "SN12C renal"}, "[52]": {"system": "IGROV1 ovarian"}, "[53]": {"system": "CAKI-1 renal"}, "[54]": {"system": "786-0 renal"}, "[55]": {"system": "SNB-19 CNS"}, "[56]": {"system": "HCT-15 colon"}},
  "note": "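Following 48 hours of exposure in 96-well plates, responses at five concentrations were used to interpolate endpoints linearly. TGI is the concentration that stops growth completely.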",
  "data": [
    {"smiles": "COc1ccc(NC(=O)C2=C(SC)C(C#N)C(=O)N=C2N)cc1", "note": "(stereo unspecified)", "values": [
      {"measurement": "TGI", "setting": "[1]", "result": "> 100", "unit": "µM"},
      {"measurement": "TGI", "setting": "[2]", "result": 69.8, "unit": "µM"},
      {"measurement": "TGI", "setting": "[3]", "result": "> 100", "unit": "µM"},
      {"measurement": "TGI", "setting": "[4]", "result": "> 100", "unit": "µM"},
      {"measurement": "TGI", "setting": "[5]", "result": 76.8, "unit": "µM"},
      {"measurement": "TGI", "setting": "[6]", "result": "> 100", "unit": "µM"},
      {"measurement": "TGI", "setting": "[7]", "result": "> 100", "unit": "µM"},
      {"measurement": "TGI", "setting": "[8]", "result": "> 100", "unit": "µM"},
      {"measurement": "TGI", "setting": "[9]", "result": 8.57, "unit": "µM"},
      {"measurement": "TGI", "setting": "[10]", "result": "> 100", "unit": "µM"},
      {"measurement": "TGI", "setting": "[11]", "result": "> 100", "unit": "µM"},
      {"measurement": "TGI", "setting": "[12]", "result": "> 100", "unit": "µM"},
      {"measurement": "TGI", "setting": "[13]", "result": "> 100", "unit": "µM"},
      {"measurement": "TGI", "setting": "[14]", "result": "> 100", "unit": "µM"},
      {"measurement": "TGI", "setting": "[15]", "result": "> 100", "unit": "µM"},
      {"measurement": "TGI", "setting": "[16]", "result": "> 100", "unit": "µM"},
      {"measurement": "TGI", "setting": "[17]", "result": "> 100", "unit": "µM"},
      {"measurement": "TGI", "setting": "[18]", "result": "> 100", "unit": "µM"},
      {"measurement": "TGI", "setting": "[19]", "result": "> 100", "unit": "µM"},
      {"measurement": "TGI", "setting": "[20]", "result": "> 100", "unit": "µM"},
      {"measurement": "TGI", "setting": "[21]", "result": "> 100", "unit": "µM"},
      {"measurement": "TGI", "setting": "[22]", "result": "> 100", "unit": "µM"},
      {"measurement": "TGI", "setting": "[23]", "result": "> 100", "unit": "µM"},
      {"measurement": "TGI", "setting": "[24]", "result": "> 100", "unit": "µM"},
      {"measurement": "TGI", "setting": "[25]", "result": "> 100", "unit": "µM"},
      {"measurement": "TGI", "setting": "[26]", "result": "> 100", "unit": "µM"},
      {"measurement": "TGI", "setting": "[27]", "result": "> 100", "unit": "µM"},
      {"measurement": "TGI", "setting": "[28]", "result": "> 100", "unit": "µM"},
      {"measurement": "TGI", "setting": "[29]", "result": "> 100", "unit": "µM"},
      {"measurement": "TGI", "setting": "[30]", "result": "> 100", "unit": "µM"},
      {"measurement": "TGI", "setting": "[31]", "result": "> 100", "unit": "µM"},
      {"measurement": "TGI", "setting": "[32]", "result": 32.1, "unit": "µM"},
      {"measurement": "TGI", "setting": "[33]", "result": "> 100", "unit": "µM"},
      {"measurement": "TGI", "setting": "[34]", "result": "> 100", "unit": "µM"},
      {"measurement": "TGI", "setting": "[35]", "result": "> 100", "unit": "µM"},
      {"measurement": "TGI", "setting": "[36]", "result": "> 100", "unit": "µM"},
      {"measurement": "TGI", "setting": "[37]", "result": "> 100", "unit": "µM"},
      {"measurement": "TGI", "setting": "[38]", "result": "> 100", "unit": "µM"},
      {"measurement": "TGI", "setting": "[39]", "result": "> 100", "unit": "µM"},
      {"measurement": "TGI", "setting": "[40]", "result": "> 100", "unit": "µM"},
      {"measurement": "TGI", "setting": "[41]", "result": "> 100", "unit": "µM"},
      {"measurement": "TGI", "setting": "[42]", "result": "> 100", "unit": "µM"},
      {"measurement": "TGI", "setting": "[43]", "result": "> 100", "unit": "µM"},
      {"measurement": "TGI", "setting": "[44]", "result": "> 100", "unit": "µM"},
      {"measurement": "TGI", "setting": "[45]", "result": "> 100", "unit": "µM"},
      {"measurement": "TGI", "setting": "[46]", "result": "> 100", "unit": "µM"},
      {"measurement": "TGI", "setting": "[47]", "result": "> 100", "unit": "µM"},
      {"measurement": "TGI", "setting": "[48]", "result": "> 100", "unit": "µM"},
      {"measurement": "TGI", "setting": "[49]", "result": "> 100", "unit": "µM"},
      {"measurement": "TGI", "setting": "[50]", "result": "> 100", "unit": "µM"},
      {"measurement": "TGI", "setting": "[51]", "result": "> 100", "unit": "µM"},
      {"measurement": "TGI", "setting": "[52]", "result": "> 100", "unit": "µM"},
      {"measurement": "TGI", "setting": "[53]", "result": "> 100", "unit": "µM"},
      {"measurement": "TGI", "setting": "[54]", "result": "> 100", "unit": "µM"},
      {"measurement": "TGI", "setting": "[55]", "result": "> 100", "unit": "µM"},
      {"measurement": "TGI", "setting": "[56]", "result": "> 100", "unit": "µM"}
    ]}
  ]
}
